Tested on: Acinetobacter baumannii ATCC17961
Assay: 90% Growth Inhibitory Concentration (IC90) determination, antimicrobial susceptibility testing
Assay type: cell-based
Details: Acinetobacter baumannii ATCC17961; Iso-Sensitest broth; growth by optical density at 600 nm over 16h; concentration inhibiting 90% of the growth; read-out: ATCC 17961 IC90
Procedure: Antimicrobial Susceptibility Testing:
90% Growth Inhibitory Concentration (IC90) Determination
The in vitro antimicrobial activity of the compounds was determined according to the following procedure:
The assay used a 10-points Iso-Sensitest broth medium to measure quantitatively the in vitro activity of the compounds against Acinetobacter baumannii ATCC17961.
Stock compounds in DMSO were serially twofold diluted (e.g. range from 50 to 0.097 μM final concentration) in 384 wells microtiter plates and inoculated with 49 μl the bacterial suspension in Iso-Sensitest medium to have a final cell concentration of ~5×10^(5) CFU/ml in a final volume/well of 50 ul/well. Microtiter plates were incubated at 35±2° C.
Bacterial cell growth was determined with the measurement of optical density at λ=600 nm each 20 minutes over a time course of 16h. Growth inhibition was calculated during the logarithmic growth of the bacterial cells with determination of the concentration inhibiting 50% (IC50) and 90% (IC90) of the growth.
Table 1 provides the 90% growth inhibitory concentrations (IC90) in micromoles per liter of the compounds of present invention obtained against the strain Acinetobacter baumannii ATCC17961.

| IC90 [nM] | Compound |
| --- | --- |
| 630 | Cn1c(-c2cn(-c3ccc(N)cn3)nc2C(F)(F)F)cnc1C(=O)Nc1ccc(C(=O)N[C@H]2C[C@@H](NC(=O)[C@@H]3C[C@@H](O)CN3)C2)c(Cl)c1 (stereo in doubt) [Example Z42, 5-[1-(5-amino-2-pyridyl)-3-(trifluoromethyl)pyrazol-4-yl]-N-[3-chloro-4-[cis-[3-[[(2S,4R)-4-hydroxyprolyl]amino]cyclobutyl]carbamoyl]phenyl]-1-methyl-imidazole-2-carboxamide] |

Same assay, conditions: Acinetobacter baumannii, ATCC17961, 16 h, Acinetobacter baumannii ATCC17961; Iso-Sensitest broth; growth by optical density at 600 nm over 16h; concentration inhibiting 90% of the growth; read-out: ATCC 17961 IC90

| IC90 [nM] | Compound |
| --- | --- |
| 750 | Cc1cc(N)cnc1-n1cc(-c2cnc(C(=O)Nc3ccc(C(=O)N4CCN(C(=O)C5CCNCC5)CC4)c(Cl)c3)n2C)c(C(F)(F)F)n1 [Example Z81, 5-[1-(5-amino-3-methyl-2-pyridyl)-3-(trifluoromethyl)pyrazol-4-yl]-N-[3-chloro-4-[4-(piperidine-4-carbonyl)piperazine-1-carbonyl]phenyl]-1-methyl-imidazole-2-carboxamide] |
| 440 | CC[C@H]1CNCCN1C(=O)c1ccc(NC(=O)c2ncc(-c3cn(-c4ccc(N)cn4)nc3C(F)(F)F)n2C)cc1Cl [Example Z64, 5-[1-(5-amino-2-pyridyl)-3-(trifluoromethyl)pyrazol-4-yl]-N-[3-chloro-4-[(2S)-2-ethylpiperazine-1-carbonyl]phenyl]-1-methyl-imidazole-2-carboxamide] |
| 1800 | Cn1c(-c2cn(-c3ccc(N)cn3)nc2C(F)(F)F)cnc1C(=O)Nc1ccc(C(=O)NC2(CO)CCNC2)c(Cl)c1 (stereo not drawn) [Example Z5, 5-[1-(5-amino-2-pyridyl)-3-(trifluoromethyl)pyrazol-4-yl]-N-[3-chloro-4-[(3-methylolpyrrolidin-3-yl)carbamoyl]phenyl]-1-methyl-imidazole-2-carboxamide] |
| 1220 | Cn1c(-c2cn(-c3ccc(N)cn3)nc2C(F)(F)F)cnc1C(=O)Nc1ccc(C(=O)NCCNC(=O)[C@@H]2C[C@@H](O)CN2)c(Cl)c1 [Example Z33, 5-[1-(5-amino-2-pyridyl)-3-(trifluoromethyl)pyrazol-4-yl]-N-[3-chloro-4-[2-[[(2S,4R)-4-hydroxyprolyl]amino]ethylcarbamoyl]phenyl]-1-methyl-imidazole-2-carboxamide] |
| 1170 | CC[C@@H]1CNCCN1C(=O)c1ccc(NC(=O)c2ncc(-c3cn(-c4ccc(N)cn4)nc3C(F)(F)F)n2C)cc1Cl [Example Z63, 5-[1-(5-amino-2-pyridyl)-3-(trifluoromethyl)pyrazol-4-yl]-N-[3-chloro-4-[(2R)-2-ethylpiperazine-1-carbonyl]phenyl]-1-methyl-imidazole-2-carboxamide] |
| 860 | Cn1c(-c2cn(-c3ccc(N)cn3)nc2C(F)(F)F)cnc1C(=O)Nc1ccc(C(=O)N[C@H]2CC[C@H](N)C2)c(Cl)c1 [Example Z16] |
| 390 | CN(C(=O)[C@@H]1C[C@@H](O)CN1)C1CCN(C(=O)c2ccc(NC(=O)c3ncc(-c4cn(-c5ccc(N)cn5)nc4C(F)(F)F)n3C)cc2Cl)CC1 [Example Z46, 5-[1-(5-amino-2-pyridyl)-3-(trifluoromethyl)pyrazol-4-yl]-N-[3-chloro-4-[4-[[(2S,4R)-4-hydroxyprolyl]-methyl-amino]piperidine-1-carbonyl]phenyl]-1-methyl-imidazole-2-carboxamide] |
| 910 | Cn1c(-c2cn(-c3ccc(N)cn3)nc2C(F)(F)F)cnc1C(=O)Nc1ccc(C(=O)NC2CC(CN)(CCl)C2)c(Cl)c1 (stereo not drawn) [Example Z15, N-[4-[[3-(aminomethyl)-3-(chloromethyl)cyclobutyl]carbamoyl]-3-chloro-phenyl]-5-[1-(5-amino-2-pyridyl)-3-(trifluoromethyl)pyrazol-4-yl]-1-methyl-imidazole-2-carboxamide] |
| 360 | Cn1c(-c2cn(-c3ccc(N)cn3)nc2C(F)(F)F)cnc1C(=O)Nc1ccc(C(=O)N[C@@H]2CC[C@@H](NC(=O)[C@@H]3C[C@@H](O)CN3)C2)c(Cl)c1 [Example Z23, 5-[1-(5-amino-2-pyridyl)-3-(trifluoromethyl)pyrazol-4-yl]-N-[3-chloro-4-[[(1R,3R)-3-[[(2S,4R)-4-hydroxyprolyl]amino]cyclopentyl]carbamoyl]phenyl]-1-methyl-imidazole-2-carboxamide] |

The remaining lines, values behind:

| Compound | IC90 [nM] |
| --- | --- |
| Cn1c(-c2cn(-c3ccc(N)cn3)nc2C(F)(F)F)cnc1C(=O)Nc1ccc(C(=O)N2CC3CCCC(C2)N3)c(Cl)c1 [Example Z53, 5-[1-(5-amino-2-pyridyl)-3-(trifluoromethyl)pyrazol-4-yl]-N-[3-chloro-4-(3,9-diazabicyclo[3.3.1]nonane-3-carbonyl)phenyl]-1-methyl-imidazole-2-carboxamide] | 500 |
| Cn1c(-c2cn(-c3ccc(NCCC(N)=O)cn3)nc2C(F)(F)F)cnc1C(=O)Nc1ccc(C(=O)N2CCN(C(=O)C3CCNCC3)CC2)c(Cl)c1 [Example C3, 5-[1-[5-[(3-amino-3-oxo-propyl)amino]-2-pyridyl]-3-(trifluoromethyl)pyrazol-4-yl]-N-[3-chloro-4-[4-(piperidine-4-carbonyl)piperazine-1-carbonyl]phenyl]-1-methyl-imidazole-2-carboxamide] | 1200 |
| COc1ccc(-n2cc(-c3cnc(C(=O)Nc4ccc(C(=O)N5CCN(C(=O)[C@@H]6CCNC[C@H]6O)CC5)c(Cl)c4)n3C)c(C(F)(F)F)n2)nc1 [Example F4, N-[3-chloro-4-[4-[(3S,4R)-3-hydroxypiperidine-4-carbonyl]piperazine-1-carbonyl]phenyl]-5-[1-(5-methoxy-2-pyridyl)-3-(trifluoromethyl)pyrazol-4-yl]-1-methyl-imidazole-2-carboxamide] | 310 |
| CN(C)c1ccc(-n2cc(-c3cnc(C(=O)Nc4ccc(C(=O)N5CCN(C(=O)C6CCNCC6)CC5)c(Cl)c4)n3C)c(C(F)(F)F)n2)nn1 [Example B3, N-[3-chloro-4-[4-(piperidine-4-carbonyl)piperazine-1-carbonyl]phenyl]-5-[1-[6-(dimethylamino)pyridazin-3-yl]-3-(trifluoromethyl)pyrazol-4-yl]-1-methyl-imidazole-2-carboxamide] | 480 |
| CN(C)c1ccnc(-n2cc(-c3cnc(C(=O)Nc4ccc(C(=O)N5CCN(C(=O)C6CCNCC6)CC5)c(Cl)c4)n3C)c(C(F)(F)F)n2)n1 [Example A17, N-[3-chloro-4-[4-(piperidine-4-carbonyl)piperazine-1-carbonyl]phenyl]-5-[1-[4-(dimethylamino)pyrimidin-2-yl]-3-(trifluoromethyl)pyrazol-4-yl]-1-methyl-imidazole-2-carboxamide] | 500 |
| Cn1c(-c2cn(-c3ccc(Cl)cn3)nc2C(F)(F)F)cnc1C(=O)Nc1ccc(C(=O)N2CCN(C(=O)C3CCNCC3)CC2)c(Cl)c1 [Example A3, N-[3-chloro-4-[4-(piperidine-4-carbonyl)piperazine-1-carbonyl]phenyl]-5-[1-(5-chloro-2-pyridyl)-3-(trifluoromethyl)pyrazol-4-yl]-1-methyl-imidazole-2-carboxamide] | 370 |
| Cn1c(-c2cn(-c3ccc(N)cn3)nc2C(F)(F)F)cnc1C(=O)Nc1ccc(C(=O)N2CCN(C(=O)[C@@H]3COCCN3)CC2)c(Cl)c1 [Example C8, 5-[1-(5-amino-2-pyridyl)-3-(trifluoromethyl)pyrazol-4-yl]-N-[3-chloro-4-[4-[(3S)-morpholine-3-carbonyl]piperazine-1-carbonyl]phenyl]-1-methyl-imidazole-2-carboxamide] | 820 |
| Cn1c(-c2cn(-c3ccc(N)cn3)nc2C(F)(F)F)cnc1C(=O)Nc1ccc(C(=O)NCC2CCN(C(=O)C3CCNCC3)CC2)c(Cl)c1 [Example C7, 5-[1-(5-amino-2-pyridyl)-3-(trifluoromethyl)pyrazol-4-yl]-N-[3-chloro-4-[[1-(piperidine-4-carbonyl)-4-piperidyl]methylcarbamoyl]phenyl]-1-methyl-imidazole-2-carboxamide] | 660 |

Same assay, conditions: Acinetobacter baumannii, ATCC17961, 16 h, read-out: ATCC 17961 IC90

| Compound | IC90 [nM] |
| --- | --- |
| CN(C)c1cnc(-n2cc(-c3cnc(C(=O)Nc4ccc(C(=O)N5CCN(C(=O)C6CCNCC6)CC5)c(Cl)c4)n3C)c(C(F)(F)F)n2)nc1 [Example B1, N-[3-Chloro-4-[4-(piperidine-4-carbonyl)piperazine-1-carbonyl]phenyl]-5-[1-[5-(dimethylamino)pyrimidin-2-yl]-3-(trifluoromethyl)pyrazol-4-yl]-1-methyl-imidazole-2-carboxamide] | 230 |
| Cn1c(-c2cn(-c3ccc(N)cn3)nc2C(F)(F)F)cnc1C(=O)Nc1ccc(C(=O)NC23CC(NC(=O)[C@@H]4C[C@@H](O)CN4)(C2)C3)c(Cl)c1 [Example Z47, 5-[1-(5-amino-2-pyridyl)-3-(trifluoromethyl)pyrazol-4-yl]-N-[3-chloro-4-[[3-[[(2S,4R)-4-hydroxyprolyl]amino]-1-bicyclo[1.1.1]pentanyl]carbamoyl]phenyl]-1-methyl-imidazole-2-carboxamide] | 580 |
| Cn1c(-c2cn(-c3ccc(N)cn3)nc2C(F)(F)F)cnc1C(=O)Nc1ccc(C(=O)N2CCC(C(=O)N3CCNCC3)CC2)c(Cl)c1 [Example H1, 5-[1-(5-Amino-2-pyridyl)-3-(trifluoromethyl)pyrazol-4-yl]-N-[3-chloro-4-[4-(piperazine-1-carbonyl)piperidine-1-carbonyl]phenyl]-1-methyl-imidazole-2-carboxamide] | 480 |

— patent publication US12679824B2 (Hoffmann-La Roche Inc., priority 2020, dated 2026)
